# pEC50: −log10 of the molar value. Where two headings read alike, the source gives them in different places.
# Key:
# HCV GT1a(H77) replicon = assay: HCV replicon luciferase reporter assay, genotype 1a; assay type: cell-based, HCV genotype 1a; conditions: Hepatitis C virus, 72 h, HUH-7 cells, 3 days incubation
# Excerpt: A stable HCV GT1a(H77) replicon luciferase reporter cell line (Yanagi M, Purcell R H, Emerson S U, et al. Transcripts from a single full-length cDNA clone of hepatitis C virus are infectious when directly transfected into the liver of a chimpanzee. Proc Natl Acad Sci USA 1997; 94(16):8738-8743) was generated as described previously for the genotype 1b(Con1) replicon luciferase cell line. The replicon construct was modified by introducing mutations into the genes encoding the NS3 helicase domain (proline replaced by leucine at position 1496) and NS5A (serine to isoleucine at position 2204) to improve replication in cell culture.
# (§1) HCV replicon luciferase assays were developed to monitor the inhibitory effects of compounds described in the disclosure on HCV genotypes 1a and 1b viral replication. HUH-7 cells, constitutively expressing the HCV replicon, were grown in Dulbecco's Modified Eagle Media (DMEM) (Gibco-BRL) containing 10% Fetal calf serum (FCS) (Sigma) and 1 mg/mL G418 (Gibco-BRL). Compounds were serially diluted 3 folds in DMSO for a twenty-point titration and subsequently transferred to sterile 384-well tissue-culture treated plates (Corning cat #3571). The plates were then seeded with 50 μL of cells at a density of 3.0×10^3 cells/well in DMEM containing 4% FCS (final DMSO concentration at 0.5%). After 3 days incubation at 37° C., cells were analyzed for Renilla Luciferase activity using the EnduRen as substrate (Promega cat #E6485). The EnduRen substrate was diluted in DMEM and then added to the plates to a final concentration of 7.5 μM. The plates were incubated for 2 hrs at 37° C. and then read immediately for 30 seconds with Viewlux Imager (PerkinElmer) using a luminescence program. To assess cytotoxicity of compounds, CC50 values were generated by multiplexing the EnduRen-containing plates with Cell Titer-Blue (Promega, cat # G8082). Cell-Titer Blue (3 μL) was added to each well and incubated for 8 hrs at 37° C. The fluorescence signal from each well was read, with an excitation wavelength at 525/10 nm and an emission wavelength of 598/10 nm, using the Viewlux Imager.
# (§2) The EC50 values for compounds were calculated by using a four-parameter logistic equation: y=A+((B−A)/(1+((C/x)^D))), where A and B denotes minimal and maximal % inhibition, respectively, C is the EC50, D is the hill slope and x represents compound concentration.
# HCV GT1b(Con1) replicon = assay: HCV replicon luciferase reporter assay, genotype 1b; assay type: cell-based, HCV genotype 1b; conditions: Hepatitis C virus, 72 h, HUH-7 cells, 3 days incubation
# Excerpt: An HCV GT1b(Con1) replicon cell system was established as described by Lohmann V, Korner F, Koch J, Herian U, Theilmann L, Bartenschlager R., Science 285(5424):110-3 (1999) and modified to introduce a luciferase reporter (Krieger N, Lohmann V, and Bartenschlager R, J. Virol. 75(10):4614-4624 (2001)). cDNA encoding a humanized form of the Renilla luciferase gene, and a linker sequence fused directly to the 3′-end of the luciferase gene were introduced into the replicon construct using an Asc1 restriction site located in core, directly upstream of the neomycin marker gene. The adaptive mutation at position 1179 (serine to isoleucine) was also introduced (Blight K J, Kolykhalov, A A, Rice, C M, Science 290(5498):1972-1974). A stable cell line constitutively expressing this HCV replicon construct was generated by first linearizing plasmid DNAs with ScaI. RNA transcripts were synthesized in vitro using the T7 MegaScript transcription kit (Ambion, Austin, Tex.) according to manufacturer's directions. In vitro transcripts of the cDNA were transfected into the human hepatoma cell line, HUH-7. […] Resulting cell lines were characterized for positive and negative strand RNA production and protein production over time.
# as §1, §2
Structure (SMILES),pEC50 (HCV GT1a(H77) replicon; read-out: LE_1a (EC50)),"pEC50 (HCV GT1a(H77) replicon; read-out: LE_1a (EC50, range))",pEC50 (HCV GT1b(Con1) replicon; read-out: LE_1b (EC50)),"pEC50 (HCV GT1b(Con1) replicon; read-out: LE_1b (EC50, range))"
C[C@@H]1CC/C=C\[C@@H]2C[C@@]2(C(=O)NS(=O)(=O)C2(C)CC2)NC(=O)[C@@H]2C[C@@H](OC(=O)Nc3ccc(F)cc3)CN2C(=O)[C@@H](NC(=O)OC(C)(C)C)[C@H](C)C1 [Compound 1304],7.20,7.20 to 7.46,7.69,7.46 to 8.30
Cc1cc(C)c(NC(=O)O[C@@H]2C[C@H]3C(=O)N[C@]4(C(=O)NS(=O)(=O)C5(C)CC5)C[C@H]4/C=C\CC[C@@H](C)C[C@@H](C)[C@H](NC(=O)OC(C)(C)C)C(=O)N3C2)c(Cl)c1 [Compound 1306],–,7.46 to 8.30,–,7.46 to 8.30
C[C@@H]1CC/C=C\[C@@H]2C[C@@]2(C(=O)NS(=O)(=O)C2(C)CC2)NC(=O)[C@@H]2C[C@@H](OC(=O)Nc3ccccc3C(F)(F)F)CN2C(=O)[C@@H](NC(=O)OC(C)(C)C(F)(F)F)[C@H](C)C1 [Compound 1307],–,8.30 to 9.00,–,8.30 to 9.00
C[C@@H]1CC/C=C\[C@@H]2C[C@@]2(C(=O)NS(=O)(=O)C2(C)CC2)NC(=O)[C@@H]2C[C@@H](OC(=O)Nc3ccc(F)cc3)CN2C(=O)[C@@H](NC(=O)OC(C)(C)C(F)(F)F)[C@H](C)C1 [Compound 1309],–,7.20 to 7.46,–,7.46 to 8.30
Cc1cc(C)c(NC(=O)O[C@@H]2C[C@H]3C(=O)N[C@]4(C(=O)NS(=O)(=O)C5(C)CC5)C[C@H]4/C=C\CC[C@@H](C)C[C@@H](C)[C@H](NC(=O)OC(C)(C)C(F)(F)F)C(=O)N3C2)c(Cl)c1 [Compound 1311],–,7.20 to 7.46,–,7.46 to 8.30
"CC[C@@H]1C[C@@H](C)CC/C=C\[C@@H]2C[C@@]2(C(=O)NS(=O)(=O)C2(C)CC2)NC(=O)[C@@H]2C[C@@H](OC(=O)N3Cc4cccc(F)c4C3)CN2C(=O)[C@H]1NC(=O)OC(C)(C)C [Compound 1312, (2R,6S,7R,9S,13aS,14aR,16aS,Z)-6-((tert-butoxycarbonyl)amino)-7-ethyl-9-methyl-14a-(((1-methylcyclopropyl)sulfonyl)carbamoyl)-5,16-dioxo-1,2,3,5,6,7,8,9,10,11,13a,14,14a,15,16,16a-hexadecahydrocyclopropa[e]pyrrolo[1,2-a][1,4]diazacyclopentadecin-2-yl 4-fluoroisoindoline-2-carboxylate]",–,7.46 to 8.30,–,8.30 to 9.00
"CC[C@@H]1C[C@H](C)CC/C=C\[C@@H]2C[C@@]2(C(=O)NS(=O)(=O)C2(C)CC2)NC(=O)[C@@H]2C[C@@H](OC(=O)N3Cc4cccc(F)c4C3)CN2C(=O)[C@H]1NC(=O)OC(C)(C)C [Compound 1313, (2R,6S,7R,9R,13aS,14aR,16aS,Z)-6-((tert-butoxycarbonyl)amino)-7-ethyl-9-methyl-14a-(((1-methylcyclopropyl)sulfonyl)carbamoyl)-5,16-dioxo-1,2,3,5,6,7,8,9,10,11,13a,14,14a,15,16,16a-hexadecahydrocyclopropa[e]pyrrolo[1,2-a][1,4]diazacyclopentadecin-2-yl 4-fluoroisoindoline-2-carboxylate]",–,8.30 to 9.00,–,8.30 to 9.00
"C[C@H]1CC/C=C\[C@@H]2C[C@@]2(C(=O)NS(=O)(=O)C2(C)CC2)NC(=O)[C@@H]2C[C@@H](OC(=O)N3Cc4cccc(F)c4C3)CN2C(=O)[C@@H](NC(=O)OC(C)(C)C)[C@H](C)C1 [Compound 1314, (2R,6S,7R,9S,13aS,14aR,16aS,Z)-6-((tert-butoxycarbonyl)amino)-7,9-dimethyl-14a-(((1-methylcyclopropyl)sulfonyl)carbamoyl)-5,16-dioxo-1,2,3,5,6,7,8,9,10,11,13a,14,14a,15,16,16a-hexadecahydrocyclopropa[e]pyrrolo[1,2-a][1,4]diazacyclopentadecin-2-yl 4-fluoroisoindoline-2-carboxylate]",–,7.46 to 8.30,–,8.30 to 9.00
"C[C@@H]1CC/C=C\[C@@H]2C[C@@]2(C(=O)NS(=O)(=O)C2(C)CC2)NC(=O)[C@@H]2C[C@@H](OC(=O)N3Cc4cccc(F)c4C3)CN2C(=O)[C@@H](NC(=O)OC(C)(C)C)[C@H](C)C1 [Compound 1315, (2R,6S,7R,9R,13aS,14aR,16aS,Z)-6-((tert-butoxycarbonyl)amino)-7,9-dimethyl-14a-(((1-methylcyclopropyl)sulfonyl)carbamoyl)-5,16-dioxo-1,2,3,5,6,7,8,9,10,11,13a,14,14a,15,16,16a-hexadecahydrocyclopropa[e]pyrrolo[1,2-a][1,4]diazacyclopentadecin-2-yl 4-fluoroisoindoline-2-carboxylate]",9.02,9.00 to 9.29,9.48,9.30 to 10.00
